Test results from patent publication US11419806B2, “Prebiotic oral care methods using a saccharide” (Colgate-Palmolive Company, priority 2013, dated 2022).

How the values were obtained:
[1] = test system: beneficial oral bacteria and pathogenic oral bacteria; assay: Microarray screen, overall prebiotic assessment; assay type: cell-based
Procedure: Substrates that were able to increase the metabolic activity of at least one of the above beneficial bacteria while not or only minimally increasing the growth of the pathogenic bacteria are considered to be prebiotic substrates.
The extent of metabolic activity of the tested bacteria in the presence of the above-mentioned saccharides after 24 hours and 48 hours was investigated through a high throughput phenotype microarray system (PM) for microbial cells (Biolog Inc.). Each PM can contain up to 95 different biochemical compounds (e.g. saccharides) that may act as substrates for bacteria as well as one negative control, not containing the substrates. Microarray plates were used in which the different wells of each plate were pre-loaded (by the manufacturer, Biolog Inc.) with different saccharides to be tested. Each bacterial species was tested using a separate microarray plate. Thus, a single bacterial species was tested with a variety of saccharides on each particular plate. The microarrays are based on redox technology, using cell respiration as a universal reporter. Active cell respiration results in the reduction of a tetrazolium dye and in the formation of a strong color—for example, when using the tetrazolium dye “Biolog Redox Dye Mix D”, the color changes from transparent/colorless to purple when the dye is reduced. The observation of this color change indicates which of the substrates improve the metabolic activity and health of the cells.
Each bacterial species was collected from blood agar plates (incubated for 48 hours anaerobically at 37° C.) and transferred to an IF-0 Base inoculation fluid (Biolog Inc.), which is a nutritionally poor medium. The resulting cell suspension was adjusted to a transmittance of 42% (relative to the transmittance of the base inoculation fluid with no bacterial species present) at 492 nm using a BioRad SmartSpec 3000 Photometer (the adjustment being effected by adding either further inoculation fluid or further bacteria until the transmittance of 42% was achieved). A 1:5 dilution of this suspension was prepared by mixing 3 mL of the 42% transmittance cell suspension with 15 mL of an inoculation fluid (which inoculation fluid was formed by mixing 11.6 mL sterile water, 62.5 mL IF-0 base inoculation fluid and 0.9 mL of the tetrazolium dye “Biolog Redox Dye mix D”), resulting in a final cell density which was equal to 85% transmittance using a BioRad SmartSpec 3000 Photometer. For each of the saccharides tested, the microarray plate (obtained from the supplier (Biolog Inc.) with saccharides already present in the relevant wells in powder form) was directly inoculated with 100 μL/well of this 85% transmittance cell suspension.
All plates were incubated in an anaerobic atmosphere at 37° C. Color changes were measured spectrophotometrically at 492 nm (Thermo Scientific Multiskan Ascent) at 24 hrs and 48 hrs using the same plate at both time points. […] After 24 hrs and 48 hrs under continuous shaking in a Multiscan microplate reader, the optical density (OD) of the synthetic medium at 24 hours and 48 hours was measured (using the microplate reader) at a wavelength of 492 nm for each combination of bacterium/saccharide, and for each of their respective controls (i.e. which contained the particular bacterium but no saccharide).
The experiment was carried out three times for each combination of bacterium with saccharide, with each repeat being carried out on a different day (thus providing three biological replicas). The controls were also carried out three times, as above. The values shown are the average (mean) of the three single values obtained (as detailed above) for each combination of bacterium with saccharide, at 24 hrs and at 48 hrs.
This value was selected in order to exclude low-stimulating metabolites and avoid false positive results.

[2] = test system: beneficial oral bacteria and pathogenic oral bacteria; assay: Twenty-four hour optical density, overall prebiotic assessment; assay type: cell-based
From the text: Substrates that were able to increase the growth (or maximal growth density or extent of growth) of at least one of the above beneficial bacteria while not or only minimally increasing the growth (or maximal growth density) of the pathogenic bacteria are considered to be prebiotic compounds.
The extent of growth of the tested bacteria in response to selected saccharides (myo-inositol, D-lactitol, D-turanose and N-acetyl-D-mannosamine) was investigated by setting up growth curves in a nutritionally rich medium (brain heart infusion broth (BHI), Oxoid), over 24 hours. Late exponential growth phase liquid cultures were prepared by transferring the respective bacterium from blood agar plates to BHI and overnight incubation at 37° C. in an anaerobic atmosphere for A. viscosus, V. parvula, F. nucleatum, P. gingivalis, P. intermedia, T. forsythia, A. naeslundii, and C. sputigena, and in a 5% CO2 environment for S. salivarius, S. sanguinis, S. mitis, A. actinomycetemcomitans, S. mutans, S. sobrinus and S. gordonii. […]
For each combination of bacterium/saccharide, and for each of their respective controls (i.e. the particular bacterium in the nutritionally rich medium with no saccharide), the optical density was measured at 630 nm (OD630) at 0 h and 24 h (Thermo Scientific Multiskan Ascent). Additionally, the OD630 for combinations of bacterium/saccharides grown in a 5% CO2 environment were also measured every hour between 0 h and 9 h.
The experiment was carried out on three different days (thus providing 3 biological replicas) and on each day the experiment was carried out in quadruple (thus providing 4 technical replicas) for each combination of bacterium with saccharide and for each control. For each day and for each combination, the average (mean) of the values obtained (as detailed above) for the four technical replicas was calculated to provide a single value for each combination on each day. […]

[3] = concentrations of 5, 10, 20 and 25 μmol/ml

OC[C@@H](O)[C@@H](O[C@H]1O[C@H](CO)[C@H](O)[C@H](O)[C@H]1O)[C@H](O)[C@@H](O)CO [D-Lactitol, 4-O-α-D-galactopyranosyl-D-glucitol]
prebiotic effects (metabolic activity, threshold value 2) ([1]; 24 hrs): exhibited prebiotic effects
prebiotic effects (extent of growth, threshold value 1.25) ([2]; concentrations of 10, 20 and 25 μmol/ml): exhibited prebiotic effects

OC[C@H]1O[C@@](O)(CO)[C@@H](O[C@H]2O[C@H](CO)[C@@H](O)[C@H](O)[C@H]2O)[C@@H]1O [D-Turanose, α-D-glucopyranosyl-(1→3)-α-D-fructofuranose]
prebiotic effects (metabolic activity, threshold value 2) ([1]; 24 hrs): exhibited prebiotic effects
speed of metabolism by beneficial versus pathogenic bacteria (value of 2 reached at 24 hrs) ([1]; 24 hrs): metabolized faster by the beneficial bacteria than by the pathogenic bacteria
prebiotic effects (extent of growth, threshold value 1.25) [2, 3]: exhibited prebiotic effects

O[C@H]1[C@H](O)[C@@H](O)[C@H](O)[C@@H](O)[C@H]1O [Myo-Inositol, (1R,2R,3S,4S,5R,6S)-cyclohexane-1,2,3,4,5,6-hexol]
prebiotic effects (metabolic activity, threshold value 2) ([1]; 24 hrs): exhibited prebiotic effects
prebiotic effects (metabolic activity, threshold value 2) ([1]; 48 hrs): exhibited prebiotic effects

CC(=O)N[C@H](C=O)[C@@H](O)[C@H](O)[C@H](O)CO [N-acetyl-D-mannosamine, 2-acetamido-2-deoxy-D-mannose]
prebiotic effects (metabolic activity, threshold value 2) ([1]; 24 hrs): exhibited prebiotic effects
speed of metabolism by beneficial versus pathogenic bacteria (value of 2 reached at 24 hrs) ([1]; 24 hrs): metabolized faster by the beneficial bacteria than by the pathogenic bacteria
prebiotic effects (extent of growth, threshold value 1.25) [2, 3]: exhibited prebiotic effects
